# Source: patent US4002752A, “Piperazinylimino rifamycins” (Gruppo Lepetit S.p.A., priority 1975, dated 1977)
# Tests used:
# Staphylococcus aureus = assay: experimental Staphylococcus aureus infections in mice; type: in vivo; details: po; Staphylococcus aureus infection in mice
# in vivo = details: mouse
# toxicity in mice (LD50) = details: mouse, in vivo
# [1] = tested on: Mycobacterium tuberculosis H37 Rv; assay: minimal inhibitory concentration in vitro against Mycobacterium tuberculosis H37 Rv; type: cell-based; details: H37RV
# Experimental: For instance, the value of the minimal inhibitory concentration in vitro of the "cyclopentyl derivative" against Mycobacterium tuberculosis H37 Rv is 0.05 μg/ml, while that of rifampicin is 0.5 μg/ml.
# [2] = tested on: Mycobacterium tuberculosis H37 Rv; assay: survival time of mice infected with Mycobacterium tuberculosis H37 Rv; type: in vivo; details: once a week administration per os versus daily administration of rifampicin at the same dose level
# Text: The unexpected biological characteristics of the novel rifamycins have been evidenced by considering the survival time after a daily administration of rifampicin in comparison with a once a week administration of the same dose level per os of 3-(4-cyclopentyl-1-piperazinyl)iminomethylrifamycin SV (hereinafter referred to as "cyclopentyl derivative") to mice infected with Mycobacterium tuberculosis H37 Rv.
Compound,ED50 (Staphylococcus aureus),LD50 (in vivo; ip),LD50 (in vivo; po),LD50 (toxicity in mice (LD50); ip),LD50 (toxicity in mice (LD50); po),MIC [1],survival time [2]
"COC1C=COC2(C)Oc3c(C)c(O)c4c(O)c(c(C=NN5CCN(C6CCC6)CC5)c(O)c4c3C2=O)NC(=O)C(C)=CC=CC(C)C(O)C(C)C(O)C(C)C(OC(C)=O)C1C (stereo not drawn) [cyclobutyl derivative, 3-(4-cyclobutyl-1-piperazinyl)iminomethylrifamycin SV]",0.16 mg/kg,> 650 mg/kg,> 2000 mg/kg,,,,
CO[C@H]1/C=C/O[C@@]2(C)Oc3c(C)c(O)c4c(O)c(c(/C=N/N5CCN(C)CC5)c(O)c4c3C2=O)NC(=O)/C(C)=C\C=C\[C@H](C)[C@H](O)[C@@H](C)[C@@H](O)[C@@H](C)[C@H](OC(C)=O)[C@@H]1C [rifampicin],,,,416 mg/kg,907 mg/kg,,
"COC1C=COC2(C)Oc3c(C)c(O)c4c(O)c(c(C=NN5CCN(C6CCCC6)CC5)c(O)c4c3C2=O)NC(=O)C(C)=CC=CC(C)C(O)C(C)C(O)C(C)C(OC(C)=O)C1C (stereo not drawn) [cyclopentyl derivative, 3-(4-cyclopentyl-1-piperazinyl)iminomethylrifamycin SV]",,> 750 mg/kg,> 2000 mg/kg,,,0.05 mg/L,about the same survival time
